{"source": "paper PMC12073438", "about": "“Stereoselectivity of In Vivo Processes and Bioactivity of Farrerol Enantiomers” (Molecules, 2025)", "assay": "Stereoselective pharmacokinetics in rat plasma", "format": "in vivo, Sprague–Dawley rats", "conditions": "for MRT last: read-out: MRT(0–t); for chiral transformation between enantiomers: single enantiomers orally administered (75 mg/kg)", "protocol": "The pharmacokinetic data were optimally characterized by a noncompartmental model. The mean concentration-time profiles for the farrerol enantiomers are illustrated in Figure 3, along with the corresponding key pharmacokinetic parameters presented in Table 2.\nTwenty-five rats were randomly divided into five experimental groups (A, B, C, D, and E). Groups A and B received farrerol racemate via intragastric administration at doses of 150 mg/kg and 75 mg/kg, respectively. Group C was administered 4 mg/kg of farrerol racemate through caudal intravenous administration. […] Blood samples (300 μL) were obtained from the orbital venous plexus into heparinized tubes at various time points: 0.25, 0.5, 1, 2, 3, 5, 7, 9, 12, and 24 h following gavage administration, and at 0.083, 0.167, 0.25, 0.5, 1, 1.5, 2, 2.5, 3, and 5 h post-intravenous administration. Plasma was separated by centrifugation (3000 rpm, 10 min) and stored at −80 °C until analysis.\nA total of 150 μL of plasma and 50 μL of the internal standard solution were added to a 1.5 mL EP tube and mixed using a vortex for 30 s. Subsequently, 500 μL of ether was introduced, and the mixture was vortexed for 5 min. Following centrifugation at 10,000 rpm for 10 min, the resulting organic layer was carefully transferred to a separate tube. Each sample underwent two extraction processes. The resulting ether layer was then evaporated to dryness using a continuous air stream at room temperature. A 250 μL aliquot of methanol was employed to re-dissolve the residue, utilizing vortex mixing for 2 min. Following centrifugation at 14,000 rpm for 10 min, the supernatant was subsequently injected into the HPLC-MS system for analysis.\nStereoselective chromatographic analysis of farrerol enantiomers was conducted utilizing an ACQUITY UPLC I-Class UPLC system (Waters, Milford, MA, USA), which is equipped with a quaternary pump and an autosampler. The chiral separation was carried out employing a Chiralpak OJ-RH column (250 mm × 4.6 mm, 5 μm), which was obtained from Daicel Chemical Industries (Shanghai, China). The mobile phase consisted of ACN-H2O (60:40, v/v), and the constant flow rate was 0.5 mL/min. The column temperature was set at 25 °C, and the injection volume was 10 μL.\nMass detection was conducted using a triple quadrupole mass spectrometer (Waters Co., USA) equipped with an electrospray ionization (ESI) source. The detection of enantiomers and internal standards (IS) was carried out in multiple reaction monitoring (MRM) mode utilizing negative ionization. The m/z 299→179 for enantiomers and m/z 267→252 for IS were selected as detecting ions for quantitation. The collision energies (CE) were established at 22 eV and 20 eV, respectively. The primary mass spectrometry (MS) parameters were configured as follows: capillary voltage was set to 3.5 kV, ion source temperature was maintained at 150 °C, desolvation gas flow rate was 800 L/h, and the cone voltage (CV) was adjusted to 1.3 V.\nPharmacokinetic analysis was conducted utilizing the Drug and Statistics (DAS) 2.0 software provided by the Chinese Pharmacological Society. To assess the differences in pharmacokinetic parameters, the IC50 values of the evaluated CYP enzymes and the permeability coefficients between the two farrerol enantiomers, paired sample t-tests and independent sample t-tests were performed. Statistical significance was defined as * p < 0.05 and ** p < 0.01. All results are presented as mean values ± standard deviation (SD).", "key": {"[1]": {"conditions": "Sprague-Dawley, rat, plasma, iv, 4 mg/kg, i.v. of farrerol racemate (4 mg/kg)"}, "[2]": {"conditions": "Sprague-Dawley, rat, plasma, po, 150 mg/kg, i.g. of farrerol racemate (150 mg/kg)"}, "[3]": {"conditions": "i.g. of farrerol racemate (75 mg/kg)"}, "[4]": {"conditions": "i.g. of farrerol racemate (150 mg/kg)"}, "[5]": {"conditions": "i.g. of the single enantiomer (75 mg/kg)"}, "[6]": {"conditions": "i.v. of farrerol racemate (4 mg/kg)"}, "[7]": {"conditions": "oral 75 mg/kg farrerol racemate"}, "[8]": {"conditions": "Sprague-Dawley, rat, plasma, po, 75 mg/kg, i.g. of the single enantiomer (75 mg/kg)"}}, "note": "“And” between values parts separate entries of the source, which are not always exact repeats. Equal values may be shown once. Read-outs that look alike come from different tables or passages of the source. Marks after values point to notes of the source that are not given here."}
{"compound": "Cc1c(O)c(C)c2c(c1O)C(=O)CC(c1ccc(O)cc1)O2", "note": "(single isomer, unassigned; (+)) [(+)-farrerol, 2,3-dihydro-5,7-dihydroxy-2-(4-hydroxyphenyl)-6,8-dimethyl-4-benzopyrone]", "values": [{"measurement": "AUC(0-inf)", "setting": "[1]", "value": "1550 ± 56", "unit": "ng·h/mL"}, {"measurement": "AUC(0-t)", "setting": "[1]", "value": "1460 ± 54.5", "unit": "ng·h/mL"}, {"measurement": "half-life", "setting": "[1]", "value": "10.7 ± 0.1", "unit": "h"}, {"measurement": "Cmax", "setting": "Sprague-Dawley, rat, plasma, iv, 4 mg/kg, i.v. of farrerol racemate (4 mg/kg), read-out: Cmax", "value": 2660, "unit": "ng/mL"}, {"measurement": "MRT last", "setting": "[1]", "value": "2.7 ± 0.1", "unit": "h"}, {"measurement": "Tmax", "setting": "Sprague-Dawley, rat, plasma, iv, 4 mg/kg, i.v. of farrerol racemate (4 mg/kg), read-out: Tmax", "value": 0.08, "unit": "h"}, {"measurement": "MRT last", "setting": "Sprague-Dawley, rat, plasma, po, 75 mg/kg, i.g. of farrerol racemate (75 mg/kg)", "value": "6.27 ± 0.27", "unit": "h"}, {"measurement": "bioavailability", "setting": "[2]", "value": "6.4 ± 0.04", "unit": "%"}, {"measurement": "Cmax", "setting": "Sprague-Dawley, rat, plasma, po, 150 mg/kg, i.g. of farrerol racemate (150 mg/kg), read-out: Cmax", "value": "457 ± 24.6", "unit": "ng/mL"}, {"measurement": "MRT last", "setting": "[2]", "value": "5.98 ± 0.14", "unit": "h"}, {"measurement": "Tmax", "setting": "Sprague-Dawley, rat, plasma, po, 150 mg/kg, i.g. of farrerol racemate (150 mg/kg), read-out: Tmax", "value": 1.5, "unit": "h"}, {"measurement": "AUC(0–t)", "setting": "[3]", "value": "2399 ng·h/mL and 2399.1 ± 102.3 ng·h/mL"}, {"measurement": "AUC(0–∞)", "setting": "[3]", "value": "6870.3 ± 511.4", "unit": "ng·h/mL"}, {"measurement": "Cmax", "setting": "[3]", "value": "287.0 ± 24.6", "unit": "ng/mL"}, {"measurement": "F", "setting": "[3]", "value": "8.7 ± 0.7", "unit": "%"}, {"measurement": "Tmax", "setting": "[3]", "value": 3.00, "unit": "h"}, {"measurement": "t1/2", "setting": "[3]", "value": "19.2 ± 2.0 ** h"}, {"measurement": "AUC(0–t)", "setting": "[4]", "value": "3522.6 ± 146.0", "unit": "ng·h/mL"}, {"measurement": "AUC(0–∞)", "setting": "[4]", "value": "13,885.5 ± 2550.4 ng/mL*h"}, {"measurement": "t1/2", "setting": "[4]", "value": "22.9 ± 2.6", "unit": "h"}, {"measurement": "AUC(0–∞)", "setting": "[5]", "value": "22,122.4 ± 1894.1 ng/mL*h"}, {"measurement": "Cmax", "setting": "[5]", "value": "1177.4 ± 84.5", "unit": "ng/mL"}, {"measurement": "MRT(0–t)", "setting": "[5]", "value": "9.12 ± 0.18", "unit": "h"}, {"measurement": "Tmax", "setting": "[5]", "value": 5.00, "unit": "h"}, {"measurement": "t1/2", "setting": "[5]", "value": "10.4 ± 0.4", "unit": "h"}, {"measurement": "Cmax", "setting": "[6]", "value": "2662.7 ± 226.4", "unit": "ng/mL"}, {"measurement": "AUC0–t of (+)-farrerol relative to (−)-farrerol", "setting": "[7]", "value": "~5.6", "unit": "fold"}, {"measurement": "Cmax of (+)-farrerol relative to (−)-farrerol", "setting": "[7]", "value": "about 3.5 fold"}, {"measurement": "AUC0–t of (+)-farrerol relative to (−)-farrerol", "setting": "oral 75 mg/kg of single enantiomers", "value": "~2.61", "unit": "fold"}, {"measurement": "chiral transformation between enantiomers", "value": "no chiral transformation"}]}
{"compound": "Cc1c(O)c(C)c2c(c1O)C(=O)CC(c1ccc(O)cc1)O2", "note": "(single isomer, unassigned; (-)) [(−)-farrerol, 2,3-dihydro-5,7-dihydroxy-2-(4-hydroxyphenyl)-6,8-dimethyl-4-benzopyrone]", "values": [{"measurement": "half-life", "setting": "[8]", "value": "12 ± 0.5", "unit": "h"}, {"measurement": "MRT last", "setting": "[8]", "value": "10.8 ± 0.47", "unit": "h"}, {"measurement": "AUC(0–t)", "setting": "[3]", "value": "428.3 ± 88.2 ** ng/mL*h"}, {"measurement": "AUC(0–∞)", "setting": "[3]", "value": "1341.8 ± 337.6 ** ng/mL*h"}, {"measurement": "Cmax", "setting": "[3]", "value": "80.5 ± 7.5 ** ng/mL"}, {"measurement": "F", "setting": "[3]", "value": "2.3 ± 0.05 ** %"}, {"measurement": "MRT(0–t)", "setting": "[3]", "value": "5.61 ± 0.56", "unit": "h"}, {"measurement": "Tmax", "setting": "[3]", "value": "1.00 * h"}, {"measurement": "t1/2", "setting": "[3]", "value": "8.5 ± 1.5 ** h"}, {"measurement": "AUC(0–t)", "setting": "[4]", "value": "1622.6 ± 84.3 ** ng/mL*h"}, {"measurement": "AUC(0–∞)", "setting": "[4]", "value": "1837.8 ± 226.9 ** ng/mL*h"}, {"measurement": "Cmax", "setting": "[4]", "value": "390.0 ± 35.3 * ng/mL"}, {"measurement": "F", "setting": "[4]", "value": "4.3 ± 0.7 * %"}, {"measurement": "MRT(0–t)", "setting": "[4]", "value": "4.65 ± 0.06", "unit": "h"}, {"measurement": "Tmax", "setting": "[4]", "value": 1.50, "unit": "h"}, {"measurement": "t1/2", "setting": "[4]", "value": "3.5 ± 0.4 ** h"}, {"measurement": "AUC(0–t)", "setting": "[5]", "value": "6746.8 ± 298.7", "unit": "ng·h/mL"}, {"measurement": "AUC(0–∞)", "setting": "[5]", "value": "8572.4 ± 221.0", "unit": "ng·h/mL"}, {"measurement": "Cmax", "setting": "[5]", "value": "520.9 ± 91.7", "unit": "ng/mL"}, {"measurement": "Tmax", "setting": "[5]", "value": "2.00 ^# h"}, {"measurement": "AUC(0–t)", "setting": "[6]", "value": "1012.4 ± 88.1 ** ng/mL*h"}, {"measurement": "AUC(0–∞)", "setting": "[6]", "value": "1195.7 ± 49.7 ** ng/mL*h"}, {"measurement": "Cmax", "setting": "[6]", "value": "1695.0 ± 224.6 ** ng/mL"}, {"measurement": "MRT(0–t)", "setting": "[6]", "value": "3.48 ± 0.07 * h"}, {"measurement": "Tmax", "setting": "[6]", "value": 0.08, "unit": "h"}, {"measurement": "t1/2", "setting": "[6]", "value": "19.0 ± 3.7 * h"}, {"measurement": "chiral transformation between enantiomers", "value": "no chiral transformation"}]}
